Data on 9 compounds can be found in ChEMBL document CHEMBL1201862, “PubChem BioAssay data set” (2004).

The structures appear in SMILES notation.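 Exposure lasted 48 hours, with cells grown in 96-well plates and compounds tested at five concentrations. Abbreviation: GI50, concentration required for 50% inhibition of growth.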 Activity calls are given as the source filed them. Cut-off read from the data, not from the text of the source: active = GI50 up to about 1.1 µM and inactive = higher.

Some test systems named below: ACHN; COLO 205; EKVX; HCC 2998; HL-60; HOP-92; K562; M14; Malme-3M; NCI-H23; NCI-H460; OVCAR-3; OVCAR-5; SF-268; SF-295; SNB-75; UO-31; SR.
What all share (test): inhibition of tumour cell growth, NCI panel, 48 h

As for `O=C(CN1CCOCC1)Nc1nc(-c2ccc(Cl)cc2)cs1`, the GI50 in the assay with ACHN was 25.1 µM (inactive); with COLO 205, 31.9 µM (inactive); in the assay with EKVX it was 75.2 µM (inactive); in the assay with HCC 2998 it was 26.8 µM (inactive); in the assay with HL-60, 17.3 µM (inactive); with HOP-92, 53.7 µM (inactive). For the same compound, the GI50 in the assay with K562 was 19.4 µM (inactive); in the assay with M14, 32.2 µM (inactive); in the assay on Malme-3M, 23.1 µM (inactive); with NCI-H23, 15.1 µM (inactive); with NCI-H460 it was 28.3 µM (inactive); in the assay on OVCAR-3, 22.3 µM (inactive). The GI50 is 89.7 µM (inactive) in the assay on OVCAR-5; 25.1 µM (inactive) with SF-268; 25.8 µM (inactive) with SF-295; 19 µM (inactive) in the assay on SNB-75; 20.3 µM (inactive) in the assay with UO-31.

With `O=C(O)C12C3C4C1C1C2C3C1(Br)C41OCCO1` (centres undefined), the GI50 with ACHN, in the assay with COLO 205, in the assay on EKVX, in the assay with HCC 2998, with HL-60 and in the assay with HOP-92 was > 100 µM (inactive) each time. Further, the GI50 with K562, in the assay on Malme-3M, with NCI-H23, in the assay with NCI-H460, in the assay on OVCAR-3 and with OVCAR-5 was > 100 µM (inactive) in each case. For the same compound, the GI50 with SF-268, with SF-295, with SNB-75 and with UO-31 was > 100 µM (inactive) throughout.

`CCc1nc(N)nc(C(=O)NCCNC(=O)c2nc(N)nc(CC)c2C)c1C`: the GI50 in the assay on ACHN, with EKVX, in the assay on HCC 2998, in the assay on HL-60, in the assay with HOP-92 and with K562 was > 100 µM (inactive) in each case. Besides, the GI50 in the assay with M14, with Malme-3M, in the assay on NCI-H23, in the assay with NCI-H460, with OVCAR-3 and in the assay on OVCAR-5 was > 100 µM (inactive) each time. For the same compound, the GI50 in the assay on SF-268, in the assay with SF-295, in the assay with SNB-75 and in the assay with UO-31 was > 100 µM (inactive) throughout.

As to `COc1ccc2nc(NC(=O)C(=O)C(C#N)c3ccc([N+](=O)[O-])cc3)sc2c1` (centres undefined), the GI50 with ACHN is > 100 µM (inactive); in the assay with COLO 205, > 100 µM (inactive); with EKVX, 31.9 µM (inactive); in the assay on HCC 2998, > 100 µM (inactive); in the assay on HOP-92, > 100 µM (inactive); in the assay with K562 it was 72.1 µM (inactive). In addition, the GI50 in the assay on M14, in the assay with Malme-3M, in the assay with NCI-H23, in the assay with NCI-H460, in the assay with OVCAR-3 and in the assay with OVCAR-5 was > 100 µM (inactive) each time. Further, the GI50 in the assay with SF-268 is > 100 µM (inactive); in the assay with SF-295 it was > 100 µM (inactive); in the assay with SNB-75, > 100 µM (inactive); in the assay on UO-31 it was 11.2 µM (inactive).

For the compound `CC(=O)c1ccccc1NC(=O)C(=O)C(C(=O)c1ccc2ccccc2c1)C1OC(=O)c2ccccc21` (centres undefined), the GI50 in the assay on ACHN is 31.8 µM (inactive); in the assay with COLO 205, 14.9 µM (inactive); in the assay on EKVX, 97.9 µM (inactive); with HCC 2998, 4.72 µM (inactive); with HL-60, 9.91 µM (inactive); in the assay with HOP-92 it was 12.4 µM (inactive). For the same compound, the GI50 in the assay on K562 is 9.04 µM (inactive); in the assay with M14 it was 16.4 µM (inactive); with Malme-3M, 3.7 µM (inactive); in the assay on NCI-H23 it was 6.49 µM (inactive); in the assay on NCI-H460 it was 5.43 µM (inactive); with OVCAR-3, 9.82 µM (inactive). Besides, the GI50 with OVCAR-5 was 22.2 µM (inactive); in the assay on SF-268, 9.27 µM (inactive); in the assay with SNB-75, 8.95 µM (inactive); in the assay with UO-31, 13.3 µM (inactive).

`CCOC(C[C@H](O[Si](C)(C)C(C)(C)C)[C@H]1COC(=S)S1)OCC`: the GI50 was 48.5 µM (inactive) in the assay on ACHN; 66.1 µM (inactive) in the assay on COLO 205; > 100 µM (inactive) with EKVX; > 100 µM (inactive) with HCC 2998; 29 µM (inactive) in the assay with HL-60; 41.3 µM (inactive) in the assay on K562. The GI50 in the assay on M14 is 52.1 µM (inactive); in the assay with Malme-3M it was > 100 µM (inactive); in the assay on NCI-H23, 53.5 µM (inactive); in the assay with NCI-H460, 53.6 µM (inactive); in the assay with OVCAR-3 it was 59.4 µM (inactive); in the assay with SF-268, > 100 µM (inactive). Further, the GI50 in the assay with SF-295 is 37.7 µM (inactive); with SR, 41.7 µM (inactive); with UO-31 it was 35 µM (inactive).

For the compound `Nc1ccc(C(=O)NN2C(=O)C(Cl)C2c2cc(Br)ccc2O)cc1` (centres undefined), the GI50 in the assay with ACHN was > 100 µM (inactive); in the assay with COLO 205, > 100 µM (inactive); in the assay on EKVX, > 100 µM (inactive); in the assay on HCC 2998, > 100 µM (inactive); in the assay with HL-60 it was 30.1 µM (inactive); in the assay with HOP-92, > 100 µM (inactive). Besides, the GI50 in the assay with K562 was 70.1 µM (inactive); with M14, > 100 µM (inactive); in the assay on Malme-3M it was > 100 µM (inactive); in the assay on NCI-H23, > 100 µM (inactive); with NCI-H460 it was > 100 µM (inactive); in the assay with OVCAR-3, > 100 µM (inactive). The GI50 in the assay with OVCAR-5 was > 100 µM (inactive); in the assay with SF-268 it was 50.5 µM (inactive); in the assay on SF-295, > 100 µM (inactive); in the assay on SNB-75, > 100 µM (inactive); with UO-31, > 100 µM (inactive).

Consider `Cc1c2cc[n+](C)cc2c(C)c2c1[nH]c1ccc(Oc3ccccc3)cc12`, for which the GI50 is 2.48 µM (inactive) in the assay with ACHN; 0.845 µM (active) with COLO 205; 3.08 µM (inactive) in the assay on EKVX; 3.18 µM (inactive) in the assay with HCC 2998; 0.935 µM (active) with HOP-92; 0.665 µM (active) in the assay with K562. Moreover, the GI50 is 4.37 µM (inactive) in the assay with M14; 1.71 µM (inactive) in the assay with Malme-3M; 0.53 µM (active) in the assay on NCI-H23; 1.14 µM (inactive) in the assay on OVCAR-3; 2.51 µM (inactive) with OVCAR-5; 1.03 µM (active) in the assay with SF-268. Further, the GI50 in the assay on SF-295 is 0.294 µM (active); with SNB-75, 0.441 µM (active); in the assay with UO-31 it was 5.08 µM (inactive).

For the compound `CCCc1nc(N)nc(C(=O)Nc2cccc(C(F)(F)F)c2)c1CC`, the GI50 in the assay with ACHN, in the assay on EKVX, in the assay with HCC 2998, with HL-60, in the assay on HOP-92 and in the assay with K562 was > 100 µM (inactive) each time. Further, the GI50 in the assay on M14, in the assay with Malme-3M, with NCI-H23, with NCI-H460, in the assay with OVCAR-3 and with OVCAR-5 was > 100 µM (inactive) throughout. The GI50 with SF-268, with SF-295, in the assay on SNB-75 and in the assay with UO-31 was > 100 µM (inactive) throughout.
